Assays:
MOLM-13 cells = assay: Cell death in MOLM-13 cell line, Compound 56-2 with BCL2 inhibitor venetoclax (CellTiter-Glo, 4 days); assay type: cell-based, human
Protocol: Test compound was dispensed using a Tecan compound dispenser into 384-well plates (Microplate 384-well, polypropylene, F-bottom; Greiner Bio-One, #781201) in a ten-by-ten response matrix to assess the combination effects of Menin inhibition (Compound 56-2) together with BCL-2 inhibition (venetoclax) at the following concentrations after subsequent cell seeding in 40 μL of growth media: 10 μM, 3.16 μM, 1 μM, 0.316 μM, 0.1 μM, 0.0316 μM, 0.01 μM, 0.00316 μM, […], and vehicle (DMSO; Sigma-Aldrich, D2650). Cells were seeded at 1000 cells per well and incubated at 37° C. and 5% CO2. MOLM-13 cells were grown in RPM1 1640 (Gibco, #21875091) supplemented with 10% FBS (Gibco; #10091-148) and 1% Pen/Strep (Gibco; #15140-122). After 4 days of compound treatment, plates were placed at room temperature for 15 minutes. 10 μL CellTiter-Glo reagent (Promega, #G9242) was added to the cells and incubated for 10 minutes in the dark on a plate shaker at room temperature. A backseal (Perkin Elmer; #6005199) was added to the plates and luminescence was measured at 0.1 sec/well in an Envision (Perkin Elmer). Data were normalized for each plate so that the average of control wells (DMSO) was set to 0%, and the maximum observed value across the plate was set as 100%. Data fitting was performed using Graphpad Prism and combination effect was assessed using SynergyFinder.

CBAM-68552 = assay: MLLr AML patient derived disseminated xenograft model CBAM-68552; assay type: in vivo, female NSG mice; conditions: 150 mg/kg oral twice daily, 21 days
Protocol: Viably frozen A. CBAM-68552, B. CBAM-44728, and C. DFAL-49600 single cell suspensions from spleens of donor mice were prepared into frozen stock. Flow cytometry antibodies for Ter119 (Miltenyi 130-112-914), mouse CD45 (Miltenyi 130-110-665), and human CD45 (Miltenyi 130-110-634) and Fixable Live Dead Stain (ThermoFisher; #L34963) for disease evaluation via flow cytometry on MACSQuant (Miltenyi). Compound 56-2 was formulated in water at pH 4.5-5 using 1M MSA as pH-adjusting agent at concentrations up to 100 mg/mL to achieve a uniform suspension and dosed twice daily by oral gavage 10 mL/kg.
A. CBAM-68552, B. CBAM-44728, and C. DFAL-49600 cells were thawed and 1 million cells implanted via the tail vein in to female NSG mice. Mice were randomized into groups of 5 when human CD45 levels reached average of A. CBAM-68552 6.5%, B. CBAM-44728 4.8%, and C. DFAL-49600 12.4% in the bone marrow of satellite animals. Mice were treated for 21 days with vehicle (water at pH 4.5-5 using 1 M MSA) or Compound 56-2 at 150 mg/kg. Compound 56-2 was dosed orally twice daily 8/16 hours apart and mice were monitored for overall survival. FIGS. 3-A, 3-B, and 3-C further illustrate the effect of treatment with Compound 56-2 in human MLLr AML Patient Derived Disseminated Xenograft Models A. CBAM-68552, B. CBAM-44728, and C. DFAL-49600, respectively.

Menin protein = Menin protein (Homo sapiens (Human), UniProt O00255); assay: Menin protein degradation in MV-4-11 SILAC cells (pulse SILAC, PRM); assay type: cell-based; conditions: 300 nM
Sequence of Menin protein (O00255 whole entry): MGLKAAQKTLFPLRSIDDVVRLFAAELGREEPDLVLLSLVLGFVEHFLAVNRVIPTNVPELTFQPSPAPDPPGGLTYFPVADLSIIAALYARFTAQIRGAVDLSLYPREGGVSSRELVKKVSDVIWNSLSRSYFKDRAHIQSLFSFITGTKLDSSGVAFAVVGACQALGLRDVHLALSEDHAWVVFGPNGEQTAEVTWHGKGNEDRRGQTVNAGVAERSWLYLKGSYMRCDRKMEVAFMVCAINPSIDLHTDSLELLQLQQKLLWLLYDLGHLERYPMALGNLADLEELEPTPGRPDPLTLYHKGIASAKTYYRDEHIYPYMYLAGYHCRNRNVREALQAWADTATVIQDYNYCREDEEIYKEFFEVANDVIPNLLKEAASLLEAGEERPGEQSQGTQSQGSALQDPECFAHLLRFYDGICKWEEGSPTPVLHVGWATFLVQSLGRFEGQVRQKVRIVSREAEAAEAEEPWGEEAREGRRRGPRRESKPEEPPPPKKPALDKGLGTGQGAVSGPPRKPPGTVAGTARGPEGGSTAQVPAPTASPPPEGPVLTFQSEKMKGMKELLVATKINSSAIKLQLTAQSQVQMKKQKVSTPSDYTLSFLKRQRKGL
Protocol: An MV-4-11 cell line was passaged at least eight times in SILAC-IMDM (ThermoFisher, #88367), which lacks L-lysine and L-arginine, and supplemented with 10% (v/v) dialyzed FBS (ThermoFisher, #A3382001), [^13C6, ^15N2]-L-lysine, and [^13C6, ^15N4]-L-arginine (Sigma #608041 and #608033) (100 μg/mL each) to achieve “heavy cell” status as determined by LC-MS/MS. Whenever thawed, the “heavy-labelled” cells were passaged at least three times before use in experiments. “Light” medium was prepared by supplementing SILAC-IMDM with 10% (v/v) dialyzed FBS and unlabeled L-arginine and L-lysine (Sigma, #A6969, #L8662). SILAC-IMDM was either supplemented with 300 nM of Compound 56-2 (10 mM solution in DMSO) or the equivalent amounts of DMSO as control. Cells were transferred to “light” media, incubated at 37° C., 5% CO2, and collected at various time points (0 hrs, 1 hrs, 2 hrs, 4.25 hrs, 10.25 hrs, 20.75 hrs, 28.5 hrs, 47 hrs, 72 hrs) by two washes with ice cold PBS and pelleted by centrifugation.
Cell pellets (approximately 2×10^5 cells) were transferred to 96-well plate using cell lysis buffer (4% SDS, 50 mM HEPES pH 7.4, 5 mM TCEP, and 10 mM chloroacetamide) and heated to 95° C. for 10 minutes. […] The PRM data were analyzed with Skyline (University of Washington, Seattle, WA., Ref.) using high-selectivity data extraction. […]

Compound: Cc1c(C(=O)C2CCN(C(=O)[C@@H]3CCC(C)(C)N3)CC2)c2ccncc2n1-c1ccc(F)cc1C(=O)N(C(C)C)C(C)C (single isomer, unassigned) [Compound 56-2]
- cell viability as monotherapy (in words) (MOLM-13 cells): cell viability loss was induced
- LATENCY (overall survival) (CBAM-68552): 188 days
- kdeg (rate of degradation of heavy Menin protein) (Menin protein): 3.89e-05 s⁻¹
